# Reference: patent publication US8178506B2, “Oligomeric compounds and compositions for use in modulation of small non-coding RNAs” (Regulus Therapeutics Inc., priority 2003, dated 2012)
# In the oligonucleotide strings, read from the 5' end, every base follows the letter of its sugar. An asterisk marks phosphorothioate; unmarked linkages are phosphodiester. Other units and linkages are bracketed, terminal groups are in braces. A string of capitals states the bases alone. e = 2'-O-(2-methoxyethyl) (MOE); [5mC] = 5-methylcytosine
# Assays:
# adipocytes = assay: Triglyceride accumulation assay in adipocytes; type: cell-based, human; conditions: differentiating adipocytes transfected with oligomeric compound
# aP2 = aP2 mRNA expression in adipocytes (real-time PCR); type: cell-based, human; conditions: differentiating adipocytes transfected with oligomeric compound; for aP2 mRNA: Table 75
# HSL = HSL mRNA expression in adipocytes (real-time PCR); type: cell-based, human; conditions: differentiating adipocytes transfected with oligomeric compound
# Glut4 = Glut4 mRNA expression in adipocytes (real-time PCR); type: cell-based, human; conditions: differentiating adipocytes transfected with oligomeric compound
# PPARγ = PPARγ mRNA expression in adipocytes (real-time PCR); type: cell-based, human; conditions: differentiating adipocytes transfected with oligomeric compound
# HuVECs = assay: Endothelial tube formation assay in HuVECs; conditions: for % Activity Relative to UTC (tube formation): 75 nM oligomeric compound; for tube formation: 75 nM
substance,measurement,setting,value
327879 (antisense eA*eA*e[5mC]*eA*eA*eA*eA*eT*e[5mC]*eA*e[5mC]*eT*eA*eG*eT*e[5mC]*eT*eT*e[5mC]*e[5mC]*eA) [compound 327879],TG (triglyceride accumulation),adipocytes; Table 75,59 percentage of untreated control (UTC)
same,aP2 mRNA,aP2,103 percentage of untreated control (UTC)
same,HSL mRNA,HSL; Table 75,103 percentage of untreated control (UTC)
same,GLUT4 mRNA,Glut4; Table 75,99 percentage of untreated control (UTC)
same,PPAR gamma mRNA,PPARγ; Table 75,81 percentage of untreated control (UTC)
same,% Activity Relative to UTC (tube formation),HuVECs; Table 56,71.4%
327881 (antisense eA*eA*eA*eA*eG*eA*eG*eA*e[5mC]*e[5mC]*eG*eG*eT*eT*e[5mC]*eA*e[5mC]*eT*eG*eT*eG*eA) [compound 327881],TG (triglyceride accumulation),adipocytes; Table 75,91 percentage of untreated control (UTC)
same,aP2 mRNA,aP2,95 percentage of untreated control (UTC)
same,HSL mRNA,HSL; Table 75,93 percentage of untreated control (UTC)
same,GLUT4 mRNA,Glut4; Table 75,97 percentage of untreated control (UTC)
same,PPAR gamma mRNA,PPARγ; Table 75,98 percentage of untreated control (UTC)
same,% Activity Relative to UTC (tube formation),HuVECs; Table 56,50.0%
327882 (antisense eT*e[5mC]*eA*e[5mC]*eT*eT*eT*eT*eG*eT*eG*eA*e[5mC]*eT*eA*eT*eG*e[5mC]*eA*eA) [compound 327882],% Activity Relative to UTC (tube formation),HuVECs; Table 56,107.1%
327884 (antisense eG*e[5mC]*eA*eA*eA*eA*eA*eT*eG*eT*eG*e[5mC]*eT*eA*eG*eT*eG*e[5mC]*e[5mC]*eA*eA*eA) [compound 327884],% Activity Relative to UTC (tube formation),HuVECs; Table 56,78.6%
327891 (antisense eG*eG*e[5mC]*e[5mC]*eG*eT*eG*eA*e[5mC]*eT*eG*eG*eA*eG*eA*e[5mC]*eT*eG*eT*eT*eA) [compound 327891],TG (triglyceride accumulation),adipocytes; Table 75,22 percentage of untreated control (UTC)
same,aP2 mRNA,aP2,56 percentage of untreated control (UTC)
same,HSL mRNA,HSL; Table 75,52 percentage of untreated control (UTC)
same,GLUT4 mRNA,Glut4; Table 75,47 percentage of untreated control (UTC)
same,PPAR gamma mRNA,PPARγ; Table 75,50 percentage of untreated control (UTC)
same,% Activity Relative to UTC (tube formation),HuVECs; Table 56,50.0%
327894 (antisense eA*eT*eA*e[5mC]*eA*eT*eA*e[5mC]*eT*eT*e[5mC]*eT*eT*eT*eA*e[5mC]*eA*eT*eT*e[5mC]*e[5mC]*eA) [compound 327894],% Activity Relative to UTC (tube formation),HuVECs; Table 56,100.0%
327898 (antisense eG*eT*eA*eG*eT*eG*e[5mC]*eT*eT*eT*e[5mC]*eT*eA*e[5mC]*eT*eT*eT*eA*eT*eG) [compound 327898],TG (triglyceride accumulation),adipocytes; Table 75,102 percentage of untreated control (UTC)
same,aP2 mRNA,aP2,96 percentage of untreated control (UTC)
same,HSL mRNA,HSL; Table 75,92 percentage of untreated control (UTC)
same,GLUT4 mRNA,Glut4; Table 75,82 percentage of untreated control (UTC)
same,PPAR gamma mRNA,PPARγ; Table 75,101 percentage of untreated control (UTC)
same,% Activity Relative to UTC (tube formation),HuVECs; Table 56,100.0%
327915 (antisense eA*e[5mC]*eA*eT*eG*eG*eT*eT*eA*eG*eA*eT*e[5mC]*eA*eA*eG*e[5mC]*eA*e[5mC]*eA*eA) [compound 327915],% Activity Relative to UTC (tube formation),HuVECs; Table 57,69.0%
327929 (antisense eG*eA*eA*e[5mC]*eA*eG*eA*eT*eA*eG*eT*e[5mC]*eT*eA*eA*eA*e[5mC]*eA*e[5mC]*eT*eG*eG*eG) [compound 327929],TG (triglyceride accumulation),adipocytes; Table 75,65 percentage of untreated control (UTC)
same,aP2 mRNA,aP2,62 percentage of untreated control (UTC)
same,HSL mRNA,HSL; Table 75,68 percentage of untreated control (UTC)
same,GLUT4 mRNA,Glut4; Table 75,49 percentage of untreated control (UTC)
same,PPAR gamma mRNA,PPARγ; Table 75,71 percentage of untreated control (UTC)
same,% Activity Relative to UTC (tube formation),HuVECs; Table 58,51.9%
327932 (antisense eA*eG*eG*e[5mC]*eA*eT*eA*eG*eG*eA*eT*eG*eA*e[5mC]*eA*eA*eA*eG*eG*eG*eA*eA) [compound 327932],% Activity Relative to UTC (tube formation),HuVECs; Table 58,51.9%
327937 (antisense eG*eA*eT*eT*e[5mC]*eA*e[5mC]*eA*eA*e[5mC]*eA*e[5mC]*e[5mC]*eA*eG*e[5mC]*eT) [compound 327937],TG (triglyceride accumulation),adipocytes,81 percentage of untreated control (UTC)
same,AP2 mRNA,aP2,76 percentage of untreated control (UTC)
same,HSL mRNA,HSL,77 percentage of untreated control (UTC)
same,GLUT4 mRNA,Glut4,63 percentage of untreated control (UTC)
same,PPAR gamma mRNA,PPARγ,92 percentage of untreated control (UTC)
same,% Activity Relative to UTC (tube formation),HuVECs; Table 58,88.9%
327943 (antisense eT*eA*eT*e[5mC]*eT*eG*e[5mC]*eA*e[5mC]*eT*eA*eG*eA*eT*eG*e[5mC]*eA*e[5mC]*e[5mC]*eT*eT*eA) [compound 327943],TG (triglyceride accumulation),adipocytes; Table 75,112 percentage of untreated control (UTC)
same,aP2 mRNA,aP2,106 percentage of untreated control (UTC)
same,HSL mRNA,HSL; Table 75,109 percentage of untreated control (UTC)
same,GLUT4 mRNA,Glut4; Table 75,87 percentage of untreated control (UTC)
same,PPAR gamma mRNA,PPARγ; Table 75,98 percentage of untreated control (UTC)
same,% Activity Relative to UTC (tube formation),HuVECs; Table 58,81.5%
327947 (antisense eT*e[5mC]*eA*eG*eT*eT*eA*eT*e[5mC]*eA*e[5mC]*eA*eG*eT*eA*e[5mC]*eT*eG*eT*eA) [compound 327947],% Activity Relative to UTC (tube formation),HuVECs; Table 58,81.5%
327948 (antisense eG*e[5mC]*eT*eG*eA*eG*eT*eG*eT*eA*eG*eG*eA*eT*eG*eT*eT*eT*eA*e[5mC]*eA) [compound 327948],% Activity Relative to UTC (tube formation),HuVECs; Table 59,33.3%
327953 (antisense eA*eG*eA*eA*eT*eT*eG*e[5mC]*eG*eT*eT*eT*eG*eG*eA*e[5mC]*eA*eA*eT*e[5mC]*eA) [compound 327953],TG (triglyceride accumulation),adipocytes,94 percentage of untreated control (UTC)
same,AP2 mRNA,aP2,92 percentage of untreated control (UTC)
same,HSL mRNA,HSL,94 percentage of untreated control (UTC)
same,GLUT4 mRNA,Glut4,112 percentage of untreated control (UTC)
same,PPAR gamma mRNA,PPARγ,90 percentage of untreated control (UTC)
same,% Activity Relative to UTC (tube formation),HuVECs; Table 59,53.3%
327960 (antisense eG*eT*e[5mC]*eT*eG*eT*e[5mC]*eA*eA*eT*eT*e[5mC]*eA*eT*eA*eG*eG*eT*e[5mC]*eA*eT) [compound 327960],TG (triglyceride accumulation),adipocytes,47 percentage of untreated control (UTC)
same,AP2 mRNA,aP2,52 percentage of untreated control (UTC)
same,HSL mRNA,HSL,52 percentage of untreated control (UTC)
same,GLUT4 mRNA,Glut4,34 percentage of untreated control (UTC)
same,PPAR gamma mRNA,PPARγ,76 percentage of untreated control (UTC)
same,% Activity Relative to UTC (tube formation),HuVECs; Table 59,53.3%
342672 (antisense eA*eT*eA*e[5mC]*e[5mC]*eG*e[5mC]*eG*eA*eT*e[5mC]*eA*eG*eT*eG*e[5mC]*eA*eT*e[5mC]*eT*eT*eT) [compound 342672],% Activity Relative to UTC (tube formation),HuVECs; Table 56,46.4%
same,% Activity Relative to UTC (tube formation),HuVECs; Table 57,58.6%
same,% Activity Relative to UTC (tube formation),HuVECs; Table 58,55.6%
same,% Activity Relative to UTC (tube formation),HuVECs; Table 59,60.0%
AAAGTGTCAGATACGGTGTGG (anti-miR; chemistry not fully specified) [ISIS 327944],tube formation,HuVECs,suppressed tube formation
ATCCAATCAGTTCCTGATGCAGTA (chemistry not given here) [ISIS 327966],tube formation,HuVECs,suppressed tube formation
CCGGCTGCAACACAAGACACGA (anti-miR; chemistry not fully specified) [ISIS 327958],tube formation,HuVECs,suppressed tube formation
GCTGAGTGTAGGATGTTTACA (anti-miR; chemistry not fully specified) [ISIS 327948],tube formation,HuVECs,suppressed tube formation
